Data on three molecules can be found in patent US5041567A, “Antibacterial monic acid derivatives” (Beecham Group plc, priority 1982, dated 1991).

In brackets after ≈: the same amount, converted by molar mass. Read-outs that look alike come from different tables or passages of the source.

One test concerns Past. haemolytica PA5. Put plainly: MIC against veterinary bacteria in vitro.
For test [1], the system named is Staph. aureus B4 (pen. resistant). Put plainly: MIC against veterinary bacteria in vitro.
Experimental: (§1) The activity of the compounds of the Examples against various veterinarily important bacteria, was assayed in vitro using two-fold serial dilutions in Diagnostic Sensitivity Test Agar inoculated with 10^4 organisms.
In test [2] the test system is M. suipneumoniae J2206/183^b. In words: MIC against mycoplasma in vitro. The test is classed as cell-based.
The test system of another test is Staph. aureus Oxford. In words: MIC against human bacteria in vitro. It counts as cell-based. To be noted: Staph. aureus Oxford, 5% chocolated horse blood agar, 18 hours.
For test [3], the system named is Pasteurella multocida 1633. In words: MIC against human bacteria in vitro. The test is classed as cell-based. To be noted: Pasteurella multocida 1633, 5% chocolated horse blood agar, 18 hours.
Test [4] relates to M. hyosynoviae ATCC 25591. Put plainly: MIC against mycoplasma in vitro. It counts as cell-based.
In another test the test system is Strep. agalactiae SPA1. Put plainly: MIC against veterinary bacteria in vitro.
In the next test the test system is M. bovis NCTC 10131. Put plainly: microbe, parasite or virus in culture. The test is classed as cell-based.
The next test has as its system P. mirabilis 889. Put plainly: MIC against human bacteria in vitro. It counts as cell-based.
For test [5], the system named is Strep. suis (group D) SPS11. In words: MIC against veterinary bacteria in vitro.
Experimental: as §1
A further test deals with Bord. bronchiseptica B08. Put plainly: MIC against veterinary bacteria in vitro.
A further test deals with Bord. bronchiseptica B09. Put plainly: MIC against veterinary bacteria in vitro.
For the next test, the system named is M. suipneumoniae JF 435. Put plainly: MIC against mycoplasma in vitro. The test is classed as cell-based.
For another test, the system named is E. coli NCTC 10418. In words: MIC against veterinary bacteria in vitro.
Test [6] deals with M. suipneumoniae NCTC 10110. In words: MIC against mycoplasma in vitro. The test is classed as cell-based.
The next test relates to M. pneumoniae ATCC 15492. In words: MIC against mycoplasma in vitro. Conditions: M. pneumoniae ATCC 15492, 6 days, 37° C. The test is classed as cell-based.
The test system of another test is M. gallisepticum S6. In words: MIC against mycoplasma in vitro. The test is classed as cell-based. Conditions: M. gallisepticum S6, 6 days, 37° C.
For another test, the system named is Past. multocida PA1. In words: MIC against veterinary bacteria in vitro.
The next test has as its system E. coli E1. In words: MIC against veterinary bacteria in vitro.
A further test has as its system M. dispar NCTC 10125. In words: MIC against mycoplasma in vitro. To be noted: M. dispar NCTC 10125, 6 days, 37° C. It counts as cell-based.
The next test has as its system M. suipneumoniae UCD 1. Put plainly: MIC against mycoplasma in vitro. It counts as cell-based.
Test [7] concerns Haemophilus influenzae Q1. Put plainly: MIC against human bacteria in vitro. It counts as cell-based. To be noted: Haemophilus influenzae Q1; 5% chocolated horse blood agar, 18 hours; read-out: MIC.
The test system of test [8] is M. suipneumoniae PW/C/210. Put plainly: MIC against mycoplasma in vitro. It counts as cell-based. Conditions: Mesomycoplasma hyopneumoniae, 144 h; M. suipneumoniae PW/C/210; 6 days, 37° C.; read-out: MIC.
Where [9] appears, read: Mannheimia haemolytica, PA5, 18 h.
Where [10] appears, read: Staphylococcus aureus, read-out: MIC.
The mark [11] stands for this setting: Bordetella bronchiseptica, B08, 18 h.
The mark [12] stands for this setting: Bordetella bronchiseptica, B09, 18 h.
Setting [13] is: Escherichia coli, NCTC10418, 18 h.
[14] abbreviates: Mycoplasmoides pneumoniae, ATCC15492, 144 h, read-out: MIC.
The mark [15] stands for this setting: Mycoplasmoides gallisepticum, 144 h, read-out: MIC.
[16] abbreviates: Pasteurella multocida, PA1, 18 h.

Experimental for Bord. bronchiseptica B08: as §1
Experimental for Bord. bronchiseptica B09: as §1
Experimental for E. coli E1: as §1
Experimental for E. coli NCTC 10418: as §1
Experimental for Past. haemolytica PA5: as §1
Experimental for Past. multocida PA1: as §1
Experimental for Strep. agalactiae SPA1: as §1

Take `CC(=Cc1cc(C)no1)CC1OCC(CC2OC2C(C)C(C)O)C(O)C1O` (stereo not shown) [Example 30, 3-Methyl-5-(1-normon-2-yl) isoxazole A]: the MIC is 10 µg/mL (≈ 26.2 µM) in the test on Past. haemolytica PA5 (Past. haemolytica PA5, Diagnostic Sensitivity Test Agar, 18 hours); 1.25 µg/mL (≈ 3.28 µM) in test [1] (Staph. aureus B4 (pen. resistant), Diagnostic Sensitivity Test Agar, 18 hours); 2.5 µg/mL (≈ 6.55 µM) in test [2] (M. suipneumoniae J2206/183^b, 6 days, 37° C.); 8.0 µg/mL (≈ 21 µM) in the test on Staph. aureus Oxford; 8.0 µg/mL (≈ 21 µM) in test [3]; 1.0 µg/mL (≈ 2.62 µM) in test [4] (M. hyosynoviae ATCC 25591, 6 days, 37° C.). In addition, the MIC with Strep. agalactiae SPA1 (Strep. agalactiae SPA1, Diagnostic Sensitivity Test Agar, 18 hours) is 40 µg/mL (≈ 105 µM); in the test on M. bovis NCTC 10131 (M. bovis NCTC 10131, 6 days, 37° C.) it was 0.25 µg/mL (≈ 0.655 µM); against P. mirabilis 889 (P. mirabilis 889, 5% chocolated horse blood agar, 18 hours) it was above 128 µg/mL; in test [5] (Strep. suis (group D) SPS11, Diagnostic Sensitivity Test Agar, 18 hours), above 80 µg/mL; in the test on Bord. bronchiseptica B08 (Bord. bronchiseptica B08, Diagnostic Sensitivity Test Agar, 18 hours) it was above 80 µg/mL; against Bord. bronchiseptica B09 (Bord. bronchiseptica B09, Diagnostic Sensitivity Test Agar, 18 hours), above 80 µg/mL. Moreover, the MIC against M. suipneumoniae JF 435 (M. suipneumoniae JF 435, 6 days, 37° C.) is 5.0 µg/mL (≈ 13.1 µM); against E. coli NCTC 10418 (E. coli NCTC 10418, Diagnostic Sensitivity Test Agar, 18 hours, 37° C.) it was above 80 µg/mL; in [6] (M. suipneumoniae NCTC 10110, 6 days, 37° C.) it was 2.5 µg/mL (≈ 6.55 µM); against M. pneumoniae ATCC 15492 it was 10 µg/mL (≈ 26.2 µM); in the test with M. gallisepticum S6, above 10 µg/mL; in the test with Past. multocida PA1 (Past. multocida PA1, Diagnostic Sensitivity Test Agar, 18 hours), 2.5 µg/mL (≈ 6.55 µM). In addition, the MIC is above 80 µg/mL in the test on E. coli E1 (E. coli E1, Diagnostic Sensitivity Test Agar, 18 hours, 37° C.); 0.25 µg/mL (≈ 0.655 µM) against M. dispar NCTC 10125; 2.5 µg/mL (≈ 6.55 µM) with M. suipneumoniae UCD 1 (M. suipneumoniae UCD 1, 6 days, 37° C.).

As to `C/C(=C\c1cc(C)on1)C[C@@H]1OC[C@H](C[C@@H]2O[C@H]2[C@@H](C)[C@H](C)O)[C@@H](O)[C@H]1O` [Example 33, 5-Methyl-3-(1-normon-2-yl) isoxazole A], the MIC was 20 µg/mL (≈ 52.4 µM) against Past. haemolytica PA5 (setting [9]); 1.3 µg/mL (≈ 3.41 µM) in test [1] (Staphylococcus aureus, 18 h); 1 µg/mL (≈ 2.62 µM) in test [2] (Mesomycoplasma hyopneumoniae, 144 h); 8 µg/mL (≈ 21 µM) in the test with Staph. aureus Oxford (setting [10]); 2 µg/mL (≈ 5.24 µM) in test [3] (read-out: MIC); 2.5 µg/mL (≈ 6.55 µM) in [4] (144 h). Besides, the MIC is 10 µg/mL (≈ 26.2 µM) against Strep. agalactiae SPA1 (Streptococcus agalactiae, SPA1, 18 h); 0.25 µg/mL (≈ 0.655 µM) with M. bovis NCTC 10131 (NCTC10131, 144 h); above 128 µg/mL in the test on P. mirabilis 889 (Proteus mirabilis, P. mirabilis 889, 5% chocolated horse blood agar, 18 hours, read-out: MIC); above 80 µg/mL in [5] (Streptococcus suis, 18 h); above 80 µg/mL against Bord. bronchiseptica B08 (setting [11]); above 80 µg/mL against Bord. bronchiseptica B09 (setting [12]). Also, the MIC against M. suipneumoniae JF 435 (Mesomycoplasma hyopneumoniae, JF435, 144 h) was 2.5 µg/mL (≈ 6.55 µM); against E. coli NCTC 10418 (setting [13]) it was above 80 µg/mL; in test [6] (Mesomycoplasma hyopneumoniae, NCTC10110, 144 h) it was 2.5 µg/mL (≈ 6.55 µM); in the test with M. pneumoniae ATCC 15492 (setting [14]) it was 10 µg/mL (≈ 26.2 µM); in the test on M. gallisepticum S6 (setting [15]), above 10 µg/mL; in the test on Past. multocida PA1 (setting [16]), 1.3 µg/mL (≈ 3.41 µM). The MIC with E. coli E1 (Escherichia coli, E1, 18 h) is above 80 µg/mL; in the test with M. dispar NCTC 10125 (144 h, read-out: MIC), 0.5 µg/mL (≈ 1.31 µM); in the test with M. suipneumoniae UCD 1 (Mesomycoplasma hyopneumoniae, UCD1, 144 h) it was 1 µg/mL (≈ 2.62 µM).

`C/C(=C\c1nc(C)c(C)o1)C[C@@H]1OC[C@H](C[C@@H]2O[C@H]2[C@@H](C)[C@H](C)O)[C@@H](O)[C@H]1O` [Example 39, 4,5-Dimethyl-2-(1-normon-2-yl)oxazole A]: the MIC against Past. haemolytica PA5 (setting [9]) is 80 µg/mL (≈ 202 µM); in test [1] (Staphylococcus aureus, 18 h) it was above 80 µg/mL; in [2] (Mesomycoplasma hyopneumoniae, 144 h, M. suipneumoniae J2206/183^b, 6 days, 37° C., read-out: MIC) it was above 10 µg/mL; in [7], 5 µg/mL (≈ 12.6 µM); with Staph. aureus Oxford (setting [10]), 100 µg/mL (≈ 253 µM); in test [3] (read-out: MIC), 50 µg/mL (≈ 126 µM). Moreover, the MIC in [4] (144 h, M. hyosynoviae ATCC 25591, 6 days, 37° C., read-out: MIC) is above 10 µg/mL; against M. bovis NCTC 10131 (NCTC10131, 144 h) it was 5 µg/mL (≈ 12.6 µM); in the test on P. mirabilis 889 (Proteus mirabilis, 889, 18 h) it was above 100 µg/mL; in test [5] (Streptococcus suis, 18 h) it was above 80 µg/mL; with Bord. bronchiseptica B08 (setting [11]), above 80 µg/mL; against Bord. bronchiseptica B09 (setting [12]), above 80 µg/mL. For the same molecule, the MIC in the test on M. suipneumoniae JF 435 (Mesomycoplasma hyopneumoniae, JF435, 144 h, M. suipneumoniae JF 435, 6 days, 37° C., read-out: MIC) was above 10 µg/mL; in the test on E. coli NCTC 10418 (setting [13]), above 80 µg/mL; in [6] (Mesomycoplasma hyopneumoniae, NCTC10110, 144 h, M. suipneumoniae NCTC 10110, 6 days, 37° C., read-out: MIC), above 10 µg/mL; in the test with M. pneumoniae ATCC 15492 (setting [14]) it was above 10 µg/mL; in the test on M. gallisepticum S6 (setting [15]), above 10 µg/mL; against Past. multocida PA1 (setting [16]) it was 80 µg/mL (≈ 202 µM). In addition, the MIC against E. coli E1 (Escherichia coli, E1, 18 h) was above 80 µg/mL; in the test on M. dispar NCTC 10125 (144 h, read-out: MIC), above 10 µg/mL; in test [8], above 10 µg/mL; in the test with M. suipneumoniae UCD 1 (Mesomycoplasma hyopneumoniae, UCD1, 144 h, M. suipneumoniae UCD 1, 6 days, 37° C., read-out: MIC) it was above 10 µg/mL.
